Test results taken from patent US9693556B2, “Herbicidal pyridazinone derivatives” (SYNGENTA LIMITED, priority 2011, dated 2017).

What was measured:
Assay type in all cases: in vivo
[1] = test system: Alopecurus myosuroides (ALOMY); assay: Pre-emergence herbicidal glasshouse test on Alopecurus myosuroides; conditions: for PRE Application ALOMY herbicidal damage (five point scale): pre-emergence, 1000 g/h, evaluated after 13 days
How it was run: (§1)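 Scored on a five-point scale (1 = 0-19% to 5 = 80-100% damage) 13 days after treatment. Application rate 1000 g/h in acetone/water (50:50) containing 0.5% Tween 20, sprayed one day post-sowing for pre-emergence or eight days for post-emergence; glasshouse at 24/16° C, 14 h light, 65% humidity.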

Setaria faberi (SETFA) [2] = assay: Pre-emergence herbicidal glasshouse test on Setaria faberi; conditions: for PRE Application SETFA herbicidal damage (five point scale): pre-emergence, 1000 g/h, evaluated after 13 days
How it was run: as §1

[3] = test system: Echinochloa crus-galli (ECHCG); assay: Pre-emergence herbicidal glasshouse test on Echinochloa crus-galli; conditions: for PRE Application ECHCG herbicidal damage (five point scale): pre-emergence, 1000 g/h, evaluated after 13 days
How it was run: as §1

Solanum nigrum (SOLNI) [4] = assay: Pre-emergence herbicidal glasshouse test on Solanum nigrum; conditions: for PRE Application SOLNI herbicidal damage (five point scale): pre-emergence, 1000 g/h, evaluated after 13 days
How it was run: as §1

[5] = test system: Amaranthus retoflexus (AMARE); assay: Pre-emergence herbicidal glasshouse test on Amaranthus retoflexus; conditions: for PRE Application AMARE herbicidal damage (five point scale): pre-emergence, 1000 g/h, evaluated after 13 days
How it was run: as §1

[6] = test system: Ipomoea hederacea (IPOHE); assay: Pre-emergence herbicidal glasshouse test on Ipomoea hederacea; conditions: for PRE Application IPOHE herbicidal damage (five point scale): pre-emergence, 1000 g/h, evaluated after 13 days
How it was run: as §1

[7] = test system: Alopecurus myosuroides (ALOMY); assay: Post-emergence herbicidal glasshouse test on Alopecurus myosuroides; conditions: for POST Application ALOMY herbicidal damage (five point scale): post-emergence, 1000 g/h, evaluated after 13 days
How it was run: as §1

Setaria faberi (SETFA) [8] = assay: Post-emergence herbicidal glasshouse test on Setaria faberi; conditions: for POST Application SETFA herbicidal damage (five point scale): post-emergence, 1000 g/h, evaluated after 13 days
How it was run: as §1

[9] = test system: Echinochloa crus-galli (ECHCG); assay: Post-emergence herbicidal glasshouse test on Echinochloa crus-galli; conditions: for POST Application ECHCG herbicidal damage (five point scale): post-emergence, 1000 g/h, evaluated after 13 days
How it was run: as §1

Solanum nigrum (SOLNI) [10] = assay: Post-emergence herbicidal glasshouse test on Solanum nigrum; conditions: for POST Application SOLNI herbicidal damage (five point scale): post-emergence, 1000 g/h, evaluated after 13 days
How it was run: as §1

[11] = test system: Amaranthus retoflexus (AMARE); assay: Post-emergence herbicidal glasshouse test on Amaranthus retoflexus; conditions: for POST Application AMARE herbicidal damage (five point scale): post-emergence, 1000 g/h, evaluated after 13 days
How it was run: as §1

[12] = test system: Ipomoea hederacea (IPOHE); assay: Post-emergence herbicidal glasshouse test on Ipomoea hederacea; conditions: for POST Application IPOHE herbicidal damage (five point scale): post-emergence, 1000 g/h, evaluated after 13 days
How it was run: as §1

SMILES | PRE Application ALOMY herbicidal damage (five point scale) [1] | PRE Application SETFA herbicidal damage (five point scale) (Setaria faberi (SETFA) [2]) | PRE Application ECHCG herbicidal damage (five point scale) [3] | PRE Application SOLNI herbicidal damage (five point scale) (Solanum nigrum (SOLNI) [4]) | PRE Application AMARE herbicidal damage (five point scale) [5] | PRE Application IPOHE herbicidal damage (five point scale) [6] | POST Application ALOMY herbicidal damage (five point scale) [7] | POST Application SETFA herbicidal damage (five point scale) (Setaria faberi (SETFA) [8]) | POST Application ECHCG herbicidal damage (five point scale) [9] | POST Application SOLNI herbicidal damage (five point scale) (Solanum nigrum (SOLNI) [10]) | POST Application AMARE herbicidal damage (five point scale) [11] | POST Application IPOHE herbicidal damage (five point scale) [12] | other results
Cc1ccc(Cl)cc1-n1c(-c2cccc(F)c2)ncc(-c2cnn(C)c(=O)c2O)c1=O [Compound 10.004] | – | – | – | – | – | – | – | – | – | – | – | – | PRE Application ALOMY ([1]; pre-emergence application, Alopecurus myosuroides, damage score 1-5): 1 (1=0-19% damage); PRE Application SETFA (Setaria faberi (SETFA) [2]; pre-emergence application, Setaria faberi, damage score 1-5): 1 (1=0-19% damage); PRE Application ECHCG ([3]; pre-emergence application, Echinochloa crus-galli, damage score 1-5): 1 (1=0-19% damage); PRE Application SOLNI (Solanum nigrum (SOLNI) [4]; pre-emergence application, Solanum nigrum, damage score 1-5): 1 (1=0-19% damage); PRE Application AMARE ([5]; pre-emergence application, Amaranthus retoflexus, damage score 1-5): 2 (2=20-39% damage); PRE Application IPOHE ([6]; pre-emergence application, Ipomoea hederacea, damage score 1-5): 1 (1=0-19% damage); POST Application ALOMY ([7]; post-emergence application, Alopecurus myosuroides, damage score 1-5): 1 (1=0-19% damage); POST Application SETFA (Setaria faberi (SETFA) [8]; post-emergence application, Setaria faberi, damage score 1-5): 3 (3=40-59% damage); POST Application ECHCG ([9]; post-emergence application, Echinochloa crus-galli, damage score 1-5): 4 (4=60-79% damage); POST Application SOLNI (Solanum nigrum (SOLNI) [10]; post-emergence application, Solanum nigrum, damage score 1-5): 5 (5=80-100% damage); POST Application AMARE ([11]; post-emergence application, Amaranthus retoflexus, damage score 1-5): 5 (5=80-100% damage); POST Application IPOHE ([12]; post-emergence application, Ipomoea hederacea, damage score 1-5): 4 (4=60-79% damage)
Cn1ncc(-c2ccc(C(F)(F)F)cc2[S+](C)[O-])c(O)c1=O (stereo not drawn) [Compound 1.029] | 5 (5=80-100% damage) | 5 (5=80-100% damage) | 5 (5=80-100% damage) | 5 (5=80-100% damage) | 5 (5=80-100% damage) | 5 (5=80-100% damage) | 5 (5=80-100% damage) | 5 (5=80-100% damage) | 5 (5=80-100% damage) | 5 (5=80-100% damage) | 5 (5=80-100% damage) | 5 (5=80-100% damage) | –
Cn1ncc(-n2ccc(C(F)(F)F)c(-c3cccc(C(F)(F)F)c3)c2=O)c(O)c1=O [Compound 7.018] | 5 (5=80-100% damage) | 5 (5=80-100% damage) | 5 (5=80-100% damage) | 5 (5=80-100% damage) | 5 (5=80-100% damage) | 2 (2=20-39% damage) | 5 (5=80-100% damage) | 5 (5=80-100% damage) | 5 (5=80-100% damage) | 5 (5=80-100% damage) | 5 (5=80-100% damage) | 3 (3=40-59% damage) | –
Cn1ncc(-c2cc3cc(F)cnc3n(-c3ccsc3)c2=O)c(O)c1=O [Compound 1.074] | 2 (2=20-39% damage) | 1 (1=0-19% damage) | 4 (4=60-79% damage) | 1 (1=0-19% damage) | 5 (5=80-100% damage) | 1 (1=0-19% damage) | 2 (2=20-39% damage) | 5 (5=80-100% damage) | 5 (5=80-100% damage) | 5 (5=80-100% damage) | 5 (5=80-100% damage) | 5 (5=80-100% damage) | –
CS(=O)(=O)c1cc(C(F)(F)F)ccc1-c1cnn(C2CC2)c(=O)c1O [Compound 2.015] | 5 (5=80-100% damage) | 5 (5=80-100% damage) | 5 (5=80-100% damage) | 5 (5=80-100% damage) | 5 (5=80-100% damage) | 5 (5=80-100% damage) | 5 (5=80-100% damage) | 5 (5=80-100% damage) | 5 (5=80-100% damage) | 5 (5=80-100% damage) | 5 (5=80-100% damage) | 5 (5=80-100% damage) | –
Cn1ncc(-n2ccc(C(F)(F)F)c(-c3ccccc3C(F)(F)F)c2=O)c(O)c1=O [Compound 1.052] | 4 (4=60-79% damage) | 4 (4=60-79% damage) | 5 (5=80-100% damage) | 5 (5=80-100% damage) | 5 (5=80-100% damage) | 1 (1=0-19% damage) | 4 (4=60-79% damage) | 5 (5=80-100% damage) | 5 (5=80-100% damage) | 5 (5=80-100% damage) | 5 (5=80-100% damage) | 5 (5=80-100% damage) | –
CN(C)c1nc(C(F)(F)F)ccc1-c1cnn(C)c(=O)c1O [Compound 1.134] | 1 (1=0-19% damage) | 1 (1=0-19% damage) | 1 (1=0-19% damage) | 5 (5=80-100% damage) | 5 (5=80-100% damage) | 2 (2=20-39% damage) | 1 (1=0-19% damage) | 2 (2=20-39% damage) | 2 (2=20-39% damage) | 5 (5=80-100% damage) | 5 (5=80-100% damage) | 5 (5=80-100% damage) | –
COc1ccc(Cl)c(-c2cnn(C)c(=O)c2O)c1 [Compound 1.090] | 1 (1=0-19% damage) | 1 (1=0-19% damage) | 1 (1=0-19% damage) | 1 (1=0-19% damage) | 1 (1=0-19% damage) | 1 (1=0-19% damage) | 1 (1=0-19% damage) | 1 (1=0-19% damage) | 1 (1=0-19% damage) | 2 (2=20-39% damage) | 1 (1=0-19% damage) | 1 (1=0-19% damage) | –
CC(C)N(C)S(=O)(=O)c1nc(C(F)(F)F)ccc1-c1cnn(C)c(=O)c1O [Compound 4.017] | 4 (4=60-79% damage) | 4 (4=60-79% damage) | 5 (5=80-100% damage) | 5 (5=80-100% damage) | 5 (5=80-100% damage) | 5 (5=80-100% damage) | 5 (5=80-100% damage) | 5 (5=80-100% damage) | 5 (5=80-100% damage) | 5 (5=80-100% damage) | 5 (5=80-100% damage) | 5 (5=80-100% damage) | –
COCn1ncc(-c2ccc(C(F)(F)F)cc2[S+](C)[O-])c(O)c1=O (stereo not drawn) [Compound 1.146] | 4 (4=60-79% damage) | 2 (2=20-39% damage) | 5 (5=80-100% damage) | 5 (5=80-100% damage) | 5 (5=80-100% damage) | 4 (4=60-79% damage) | 5 (5=80-100% damage) | 5 (5=80-100% damage) | 5 (5=80-100% damage) | 5 (5=80-100% damage) | 5 (5=80-100% damage) | 5 (5=80-100% damage) | –
